Patent US20240174637A1, “DEGRADERS OF GRK2 AND USES THEREOF” (Sonata Therapeutics, Inc., priority 2021, published 2024)
Counter-ions that a name gives are not always drawn. Like-named read-outs stand apart in the source and are kept apart here.

Tests used:
[1] = biological target: T1, GRK2 (Homo sapiens, UniProt P25098); experiment: GRK2 Inhibition Assay (TR-FRET, Example 1); assay type: biochemical
T1 sequence (P25098 1-689): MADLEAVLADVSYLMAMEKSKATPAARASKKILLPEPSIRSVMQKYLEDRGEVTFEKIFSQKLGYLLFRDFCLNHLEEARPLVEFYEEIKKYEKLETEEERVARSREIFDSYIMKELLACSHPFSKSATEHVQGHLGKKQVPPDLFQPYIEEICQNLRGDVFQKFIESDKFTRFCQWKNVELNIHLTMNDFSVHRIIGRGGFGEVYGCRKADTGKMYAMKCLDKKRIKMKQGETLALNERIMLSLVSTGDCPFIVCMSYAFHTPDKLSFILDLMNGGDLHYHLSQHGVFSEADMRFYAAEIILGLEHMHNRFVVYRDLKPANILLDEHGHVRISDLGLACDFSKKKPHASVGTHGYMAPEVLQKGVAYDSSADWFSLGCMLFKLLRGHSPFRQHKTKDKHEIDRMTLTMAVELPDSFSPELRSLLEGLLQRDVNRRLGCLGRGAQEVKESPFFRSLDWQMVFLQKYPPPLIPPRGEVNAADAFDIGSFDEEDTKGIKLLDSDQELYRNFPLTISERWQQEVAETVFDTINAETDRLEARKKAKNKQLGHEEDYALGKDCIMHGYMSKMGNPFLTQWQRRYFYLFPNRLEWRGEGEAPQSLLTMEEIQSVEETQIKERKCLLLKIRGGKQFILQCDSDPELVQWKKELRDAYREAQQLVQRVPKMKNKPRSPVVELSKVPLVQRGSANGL
Protocol: Assay: GRK2 enzyme (1 nM final concentration) was diluted in 25 mM HEPES, 10 mM MgCl2, 2 mM DTT, 0.01% Tween-20, and 1 mM EGTA. Then the GRK2 mixture was added into ProxiPlate-384 white plate and pre-incubated for 30 min with test compounds at room temperature. ATP (7 μM final concentration) and Ulight TopoIIα (50 nM final concentration) were added into the assay plate to initiate the reaction and the mixture was incubated at room temperature for 90 min. Then, Eu anti-TopoIIα (0.12 nM final concentration), BSA (0.01% final concentration), and EDTA (11 mM final concentration) in LANCE assay buffer were added into each well. After 60 min incubation time at room temperature, TR-FRET signal was measured by EnVision plate reader.

[2] = test system: PAXF1657 EV; experiment: 7-day cellular proliferation assay (CellTiter-Glo), PAXF1657 EV; assay type: cell-based
Summary of the method: (§1)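 Viability by CellTiter-Glo after 7 days at 37° C., with compound-containing media replaced on day 3. Cells (500/well, RPMI1640 + 10% FBS) were PAXF1657 pairs: GRK2 overexpression vs empty vector, or CRISPR GRK2 knockout vs non-targeting clones; doses 30 μM-0.0002 μM final, 10 points, 0.3% DMSO.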

[3] = test system: PAXF1657 KO Clone #4; experiment: 7-day cellular proliferation assay (CellTiter-Glo), PAXF1657 KO Clone #4; assay type: cell-based
Summary of the method: as §1

[4] = biological target: T1, GRK2; experiment: GRK2 Degradation Assay and Western Blot in PAXF1657 cells; assay type: cell-based; parameters: endogenous in cells; host or cells: PAXF1657; settings: for DC50: PAXF1657, 24 h, read-out: Degradation Assay - Full Dose Response: IC50 (uM) [cell line: PAXF1657, time point: 24 h]
Summary of the method: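 GRK2 degradation judged by immunoblot: NP40 lysates separated by SDS-PAGE and probed for GRK2 and β-actin, with HRP/ECL detection. Lysates came from PAXF1657 cells exposed to 0–10 μM compound for 6–24 h after reaching 70% confluency.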

[5] = Table 4, Example 1 assay, read-out: Enzymatic GRK2 IC50: Av IC50 GRK2
[6] = proliferation, read-out: GeoMean IC50 (UM) PAXF1657 EV
[7] = proliferation, read-out: GeoMean IC50 (uM) PAXF1657 KO Clone #4
[8] = Conc 0.3 uM, read-out: Degradation Assay - 3 point: Degradation (%)
[9] = Conc 1 uM, read-out: Degradation Assay - 3 point: Degradation (%)
[10] = Conc 3 uM, read-out: Degradation Assay - 3 point: Degradation (%)
[11] = TR-FRET, 7 μM ATP, read-out: Enzymatic GRK2 Assay: IC50 (nM) (Example 1)
[12] = 168 h, 7-day, read-out: 7-day proliferation assay: IC50 GeoMean (uM) [Cell Line: PAXF1657 EV]
[13] = 168 h, 7-day, read-out: 7-day proliferation assay: IC50 GeoMean (uM) [Cell Line: PAXF1657 KO Clone #4]
[14] = 1 uM, PAXF1657 EV, 24 hrs, read-out: % GRK2 degradation at 1 uM in PAXF1657 EV (24 hrs)
[15] = 3 uM, PAXF1657 EV, 24 hrs, read-out: % GRK2 degradation at 3 uM in PAXF1657 EV (24 hrs)

Structure (SMILES): C[C@@H](NC(=O)c1cccc(NCc2nnc(-c3ccncn3)n2C)c1)c1ccc(OCCCCCCOCCOCCOCCCC(=O)N2CCN(c3cc4c(cc3F)C(=O)N(C3CCC(=O)NC3=O)C4=O)CC2)cc1 (stereo partly drawn) [Compound D125, N-((1R)-1-(4-(6-(2-(2-(4-(4-(2-(2,6-dioxopiperidin-3-yl)-6-fluoro-1,3-dioxoisoindolin-5-yl)piperazin-1-yl)-4-oxobutoxy)ethoxy)ethoxy)hexyloxy)phenyl)ethyl)-3-((4-methyl-5-(pyrimidin-4-yl)-4H-1,2,4-triazol-3-yl)methylamino)benzamide]
- IC50 [1, 5]: 1.13 nM
- IC50 [2, 6]: 0.11 µM
- IC50 [3, 7]: 26.6 µM
- inhibition at 0.3 µM [4, 8]: 71.9%
- inhibition at 1 µM [4, 9]: 82.5%
- inhibition at 3 µM [4, 10]: 76.4%

Structure (SMILES): C[C@@H](NC(=O)c1cccc(NCc2nnc(-c3ccncn3)n2C)c1)c1cccc(OCCCCCOCCCOCCOc2cccc3c2CN(C2CCC(=O)NC2=O)C3=O)c1 (stereo partly drawn) [Compound D198, N-((1R)-1-(3-((5-(3-(2-((2-(2,6-dioxopiperidin-3-yl)-1-oxoisoindolin-4-yl)oxy)ethoxy)propoxy)pentyl)oxy)phenyl)ethyl)-3-(((4-methyl-5-(pyrimidin-4-yl)-4H-1,2,4-triazol-3-yl)methyl)amino)benzamide]
- IC50 [1, 5]: 22.1 nM
- IC50 [2, 6]: 0.01 µM
- IC50 [3, 7]: > 30 µM
- inhibition at 0.3 µM [4, 8]: 83.9%
- inhibition at 1 µM [4, 9]: 81.6%
- inhibition at 3 µM [4, 10]: 50.3%

Structure (SMILES): C[C@@H](NC(=O)c1cccc(NCc2nnc(-c3ccncn3)n2C)c1)c1cccc(OCCCCCCOCCN2CCN(c3cc4c(cc3F)C(=O)N(C3CCC(=O)NC3=O)C4=O)CC2)c1 (stereo partly drawn) [Compound D134, N-((1R)-1-(3-(6-(2-(4-(2-(2,6-dioxopiperidin-3-yl)-6-fluoro-1,3-dioxoisoindolin-5-yl)piperazin-1-yl)ethoxy)hexyloxy)phenyl)ethyl)-3-((4-methyl-5-(pyrimidin-4-yl)-4H-1,2,4-triazol-3-yl)methylamino)benzamide]
- IC50 [1, 5]: 29.9 nM
- inhibition at 0.3 µM [4, 8]: 64.1%
- inhibition at 1 µM [4, 9]: 82.6%
- inhibition at 3 µM [4, 10]: 86.7%
- DC50 [4]: 0.29 µM

Structure (SMILES): Cc1ncsc1-c1ccc(CNC(=O)[C@@H]2C[C@@H](O)CN2C(=O)[C@@H](NC(=O)CCCCCOCCOCCOCCCCCCOc2ccc(CNC(=O)c3cccc(NCc4nnc(-c5ccncn5)n4C)c3)cc2)C(C)(C)C)cc1 [Compound D87]
- IC50 [1, 11]: < 100 nM
- IC50 [2, 12]: 1 to 10 µM
- IC50 [3, 13]: > 10 µM
- inhibition at 1 µM [4, 14]: 23%
- inhibition at 3 µM [4, 15]: 18%

Structure (SMILES): Cc1ncsc1-c1ccc([C@H](C)NC(=O)[C@@H]2C[C@@H](O)CN2C(=O)[C@@H](NC(=O)CCCCCOCCOCCOCCCCCCOc2cccc(CNC(=O)c3cccc(NCc4nnc(-c5ccncn5)n4C)c3)c2)C(C)(C)C)cc1 [Compound D90]
- IC50 [1, 11]: < 100 nM
- IC50 [2, 12]: 1 to 10 µM
- IC50 [3, 13]: > 10 µM
- inhibition at 1 µM [4, 14]: 23%
- inhibition at 3 µM [4, 15]: 20%

Structure (SMILES): C[C@@H](NC(=O)c1cccc(NCc2nnc(-c3ccncn3)n2C)c1)c1cccc(C(=O)N2CCC(CCN3CCN(c4ccc5c(c4)CN(C4CCC(=O)NC4=O)C5=O)CC3)CC2)c1 (stereo partly drawn) [Compound D120]
- IC50 [1, 5]: 9.55 nM
- IC50 [2, 6]: 0.04 µM
- IC50 [3, 7]: > 30 µM
- inhibition at 0.3 µM [4, 8]: 90.8%
- inhibition at 1 µM [4, 9]: 94.8%
- inhibition at 3 µM [4, 10]: 89.6%

Structure (SMILES): Cn1c(CNc2cccc(C(=O)NCc3cc(OCCCCCCOCCOCCOCCCCCC(=O)Nc4cccc5c4CN(C4CCC(=O)NC4=O)C5=O)ccc3F)c2)nnc1-c1ccncn1 (stereo not drawn) [Compound D66, N-(5-((6-(2-(2-((6-((2-(2,6-dioxopiperidin-3-yl)-1-oxoisoindolin-4-yl)amino)-6-oxohexyl)oxy)ethoxy)ethoxy)hexyl)oxy)-2-fluorobenzyl)-3-(((4-methyl-5-(pyrimidin-4-yl)-4H-1,2,4-triazol-3-yl)methyl)amino)benzamide]
- IC50 [1, 11]: < 100 nM
- IC50 [2, 12]: > 10 µM
- IC50 [3, 13]: > 10 µM
- % GRK2 degradation at 0.03 uM in PAXF1657 EV (24 hrs) ([4]; 0.03 uM, PAXF1657 EV, 24 hrs): 8%
- % GRK2 degradation at 0.1 uM in PAXF1657 EV (24 hrs) ([4]; 0.1 uM, PAXF1657 EV, 24 hrs): 8%
- inhibition at 0.3 µM ([4]; 0.3 uM, PAXF1657 EV, 24 hrs, read-out: % GRK2 degradation at 0.3 uM in PAXF1657 EV (24 hrs)): 40%
- inhibition at 1 µM [4, 14]: 55%
- inhibition at 3 µM [4, 15]: 71%
- % GRK2 degradation at 10 uM in PAXF1657 EV (24 hrs) ([4]; 10 uM, PAXF1657 EV, 24 hrs): 58%
- GRK2 degradation, dose dependence (FIGS. 1A-1D) ([4]; 24-hour treatment in PAXF1657 cells): Dose dependent

Structure (SMILES): C[C@@H](NC(=O)c1cccc(NCc2nnc(-c3ccncn3)n2C)c1)c1cccc(OCCCCCCOCC(=O)N2CCN(c3ccc4c(c3)CN(C3CCC(=O)NC3=O)C4=O)CC2)c1 (stereo partly drawn) [Compound D132, N-((1R)-1-(3-(6-(2-(4-(2-(2,6-dioxopiperidin-3-yl)-1-oxoisoindolin-5-yl)piperazin-1-yl)-2-oxoethoxy)hexyloxy)phenyl)ethyl)-3-((4-methyl-5-(pyrimidin-4-yl)-4H-1,2,4-triazol-3-yl)methylamino)benzamide]
- IC50 [1, 5]: 16.3 nM
- IC50 [2, 6]: 0.04 µM
- IC50 [3, 7]: > 30 µM
- inhibition at 0.3 µM [4, 8]: 87.4%
- inhibition at 1 µM [4, 9]: 92.4%
- inhibition at 3 µM [4, 10]: 91.5%
- DC50 [4]: 0.12 µM

Structure (SMILES): C[C@@H](NC(=O)c1cccc(NCc2nnc(-c3ccncn3)n2C)c1)c1cccc(OCCCCCCOCCOCCN2CCN(c3ccc4c(c3)CN(C3CCC(=O)NC3=O)C4=O)CC2)c1 (stereo partly drawn) [Compound D135, N-((1R)-1-(3-(6-(2-(2-(4-(2-(2,6-dioxopiperidin-3-yl)-1-oxoisoindolin-5-yl)piperazin-1-yl)ethoxy)ethoxy)hexyloxy)phenyl)ethyl)-3-((4-methyl-5-(pyrimidin-4-yl)-4H-1,2,4-triazol-3-yl)methylamino)benzamide]
- IC50 [1, 5]: 23.7 nM
- inhibition at 0.3 µM [4, 8]: 82.2%
- inhibition at 1 µM [4, 9]: 84.2%
- inhibition at 3 µM [4, 10]: 84.3%
- DC50 [4]: 0.06 µM

Structure (SMILES): C[C@H](NC(=O)c1cccc(NCc2nnc(-c3ccncn3)n2C)c1)c1ccc(OCCCCN2CCN(c3ccc4c(c3)CN(C3CCC(=O)NC3=O)C4=O)CC2)cc1 (stereo partly drawn) [Compound D117, N-((1S)-1-(4-(4-(4-(2-(2,6-dioxopiperidin-3-yl)-1-oxoisoindolin-5-yl)piperazin-1-yl)butoxy)phenyl)ethyl)-3-((4-methyl-5-(pyrimidin-4-yl)-4H-1,2,4-triazol-3-yl)methylamino)benzamide hydrochloride]
- IC50 [1, 5]: > 1000 nM
- inhibition at 0.3 µM [4, 8]: 12.3%
- inhibition at 1 µM [4, 9]: -20.5%
- inhibition at 3 µM [4, 10]: -4.97%

Structure (SMILES): C[C@H](NC(=O)c1cccc(NCc2nnc(-c3ccncn3)n2C)c1)c1ccc(OCCCN2CCN(c3ccc4c(c3)CN(C3CCC(=O)NC3=O)C4=O)CC2)cc1 (stereo partly drawn) [Compound D118, N-((1S)-1-(4-(3-(4-(2-(2,6-dioxopiperidin-3-yl)-1-oxoisoindolin-5-yl)piperazin-1-yl)propoxy)phenyl)ethyl)-3-((4-methyl-5-(pyrimidin-4-yl)-4H-1,2,4-triazol-3-yl)methylamino)benzamide hydrochloride]
- IC50 [1, 5]: > 1000 nM
- inhibition at 0.3 µM [4, 8]: -13.1%
- inhibition at 1 µM [4, 9]: 3.23%
- inhibition at 3 µM [4, 10]: 5.18%
